Read-outs that look alike come from different tables or passages of the source.
Experiments:
α3β4 nAChR [1] = target: T1, α3β4 nAChR (Rattus norvegicus, UniProt P04757+P12392); assay type: cell-based
α3β4 nAChR [2] = target: T1, α3β4 nAChR; details: change in both Kd and Bmax of [3H]epibatidine
rat α4β2 nAChR = rat α4β2 nAChR (Rattus norvegicus, UniProt P09483+P12390); assay type: binding
rat α3β4 nAChR = rat α3β4 nAChR (Rattus norvegicus, UniProt P04757+P12392); assay type: binding
α7 nAChR = α7 nAChR (Rattus norvegicus, UniProt Q05941); assay: biochemical; assay type: binding
α4β2 nAChR = α4β2 nAChR (Rattus norvegicus, UniProt P09483+P12390); assay: Functional assay; assay type: cell-based
[3] = FLIPR, alone and against epibatidine-induced Ca2+ fluorescence

T1 sequence (P12392 22-495): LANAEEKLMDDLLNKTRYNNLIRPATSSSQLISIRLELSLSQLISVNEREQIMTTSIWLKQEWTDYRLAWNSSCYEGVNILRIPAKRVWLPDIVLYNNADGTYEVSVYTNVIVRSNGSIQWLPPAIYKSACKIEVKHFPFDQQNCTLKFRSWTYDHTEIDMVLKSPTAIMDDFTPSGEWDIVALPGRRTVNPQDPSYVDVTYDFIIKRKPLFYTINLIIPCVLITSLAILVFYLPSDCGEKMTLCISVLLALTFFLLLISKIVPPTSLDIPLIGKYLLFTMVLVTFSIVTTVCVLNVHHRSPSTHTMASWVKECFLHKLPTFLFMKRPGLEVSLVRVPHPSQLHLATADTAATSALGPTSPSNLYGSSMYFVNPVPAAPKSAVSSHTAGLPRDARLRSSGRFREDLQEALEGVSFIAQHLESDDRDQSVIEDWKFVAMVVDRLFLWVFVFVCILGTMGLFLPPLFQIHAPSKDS
T1 sequence (P04757 26-499): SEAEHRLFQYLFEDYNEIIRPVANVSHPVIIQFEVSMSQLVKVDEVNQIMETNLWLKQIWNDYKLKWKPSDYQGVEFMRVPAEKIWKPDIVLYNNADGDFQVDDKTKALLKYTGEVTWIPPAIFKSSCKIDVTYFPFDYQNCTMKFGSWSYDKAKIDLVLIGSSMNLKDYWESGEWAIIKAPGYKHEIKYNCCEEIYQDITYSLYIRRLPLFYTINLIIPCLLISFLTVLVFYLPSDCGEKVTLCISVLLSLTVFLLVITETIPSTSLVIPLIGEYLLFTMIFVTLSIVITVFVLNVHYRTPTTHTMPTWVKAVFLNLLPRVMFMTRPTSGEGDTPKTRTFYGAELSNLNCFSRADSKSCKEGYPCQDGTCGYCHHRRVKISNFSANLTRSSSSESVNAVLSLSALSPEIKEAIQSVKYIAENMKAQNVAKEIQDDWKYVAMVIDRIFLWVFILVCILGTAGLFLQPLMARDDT
Sequence of rat α4β2 nAChR (P09483 31-630): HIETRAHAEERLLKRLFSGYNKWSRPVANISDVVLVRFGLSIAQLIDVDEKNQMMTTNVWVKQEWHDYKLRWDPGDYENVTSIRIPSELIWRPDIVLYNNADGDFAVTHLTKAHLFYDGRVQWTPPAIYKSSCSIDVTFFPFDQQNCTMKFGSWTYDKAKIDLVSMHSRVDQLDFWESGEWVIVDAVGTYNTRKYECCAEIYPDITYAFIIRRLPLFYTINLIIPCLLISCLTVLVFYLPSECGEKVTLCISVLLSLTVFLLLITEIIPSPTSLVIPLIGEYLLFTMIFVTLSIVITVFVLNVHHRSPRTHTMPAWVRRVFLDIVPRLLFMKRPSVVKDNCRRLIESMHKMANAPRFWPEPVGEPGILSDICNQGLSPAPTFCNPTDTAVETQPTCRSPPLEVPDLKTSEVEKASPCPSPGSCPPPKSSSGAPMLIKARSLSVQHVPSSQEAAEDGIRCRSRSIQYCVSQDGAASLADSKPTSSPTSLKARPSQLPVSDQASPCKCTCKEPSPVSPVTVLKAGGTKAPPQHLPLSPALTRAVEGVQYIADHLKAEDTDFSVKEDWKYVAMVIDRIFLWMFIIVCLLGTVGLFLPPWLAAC
Sequence of rat α4β2 nAChR (P12390 25-500): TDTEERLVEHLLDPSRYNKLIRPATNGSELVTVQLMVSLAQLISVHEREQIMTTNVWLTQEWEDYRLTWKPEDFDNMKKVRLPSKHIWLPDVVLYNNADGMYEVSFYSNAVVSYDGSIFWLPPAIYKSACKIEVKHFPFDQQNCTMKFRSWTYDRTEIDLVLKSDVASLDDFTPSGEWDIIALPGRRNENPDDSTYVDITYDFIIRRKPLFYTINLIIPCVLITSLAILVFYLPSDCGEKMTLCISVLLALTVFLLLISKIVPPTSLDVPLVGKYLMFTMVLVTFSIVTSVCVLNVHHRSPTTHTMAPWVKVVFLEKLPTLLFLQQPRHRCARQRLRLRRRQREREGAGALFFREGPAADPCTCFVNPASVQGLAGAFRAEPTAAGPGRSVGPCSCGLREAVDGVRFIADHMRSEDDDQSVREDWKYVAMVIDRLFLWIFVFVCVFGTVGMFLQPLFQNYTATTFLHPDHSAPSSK
Sequence of rat α3β4 nAChR (P04757 26-499): as the sequence (P04757 26-499) above
Sequence of rat α3β4 nAChR (P12392 22-495 limits assumed): as the sequence (P12392 22-495) above
Sequence of α4β2 nAChR (P09483 31-630): as the sequence (P09483 31-630) above
Sequence of α4β2 nAChR (P12390 25-500): as the sequence (P12390 25-500) above
Sequence of α7 nAChR (Q05941 23-502): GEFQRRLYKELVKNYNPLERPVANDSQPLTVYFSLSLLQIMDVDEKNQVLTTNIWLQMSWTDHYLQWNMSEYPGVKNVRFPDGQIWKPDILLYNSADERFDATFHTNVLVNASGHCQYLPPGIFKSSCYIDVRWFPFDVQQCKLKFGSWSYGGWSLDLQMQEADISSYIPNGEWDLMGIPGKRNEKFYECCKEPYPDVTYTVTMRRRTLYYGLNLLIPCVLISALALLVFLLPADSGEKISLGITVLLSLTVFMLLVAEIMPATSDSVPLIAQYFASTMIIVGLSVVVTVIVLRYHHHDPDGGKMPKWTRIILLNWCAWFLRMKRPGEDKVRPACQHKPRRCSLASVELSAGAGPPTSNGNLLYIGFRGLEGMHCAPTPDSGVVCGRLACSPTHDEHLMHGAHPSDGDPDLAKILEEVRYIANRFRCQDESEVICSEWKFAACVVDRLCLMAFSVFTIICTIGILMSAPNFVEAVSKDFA

Clc1ccc(C2CC3CCC2N3)cn1 (stereo not drawn) [Epibatidine, reference compound]
increase in intracellular Ca2+-induced fluorescence (α3β4 nAChR [1]): 1000 fold

O=c1cccc2n1C[C@@H]1CNC[C@H]2C1 [Cytisine]
mode of binding with epibatidine at α3β4 (α3β4 nAChR [2]): noncompetitively

O=C1Cc2ccccc2N1C1CC2CC(C1)N(Cc1ccccc1)C2 (stereo not drawn) [Compound 12]
binding affinity at α4β2 nAChR (in words) (rat α4β2 nAChR): completely abolished affinity

O=C1Cc2ccccc2N1C1CC2CCCC(C1)N2 (stereo not drawn) [Compound 6]
functional activity at α3β4 nAChR (in words) (α3β4 nAChR [1]; [3]): antagonists
potency in reversing epibatidine-induced Ca2+ fluorescence (α3β4 nAChR [1]; FLIPR, α3β4 HEK cells): micromolar range

C1=C(c2cccnc2)CC2CC1CN2Cc1ccccc1 (stereo not drawn) [Compound 10, 6-benzyl-3-(pyridin-3-yl)-6-azabicyclo[3.2.1]oct-2-ene]
Ki (rat α3β4 nAChR): 170 ± 47.9 nM
selectivity for α4β2 over α3β4 receptors (rat α4β2 nAChR): about 100 fold
selectivity for α4β2 over α7 nAChR (rat α4β2 nAChR): greater than 200 fold
Ki (rat α4β2 nAChR; binding affinity (Ki) α4β2): 1.95 ± 0.18 nM
Ki (α7 nAChR): 424 nM
functional activity at α3β4 nAChR (in words) (α3β4 nAChR [1]): partial agonist
functional activity at α4β2 nAChR (in words) (α4β2 nAChR): partial agonist

CN1C2C=C(c3cccnc3)CC1CCC2 (stereo not drawn) [Compound 8, 9-methyl-3-(pyridin-3-yl)-9-azabicyclo[3.3.1]non-2-ene]
functional activity at α3β4 nAChR (in words) (α3β4 nAChR [1]; [3]): partial agonist activity

CCOC(=O)N1C2C=C(c3cccnc3)CC1CCC2 (stereo not drawn) [Compound 7]
binding affinity at α3β4 nAChR (in words) (rat α3β4 nAChR): complete loss of binding affinity
binding affinity at α4β2 nAChR (in words) (rat α4β2 nAChR): complete loss of binding affinity

Source: article PMC2997436 (Journal of medicinal chemistry, 2010)
